Results reported in US10828304B2, “Compositions and methods for white to beige adipogenesis” (University of South Florida, priority 2017, dated 2020).

Assays:
3T3-L1 cells [1] = assay: Oil Red O staining of triglycerides and lipids in 3T3-L1 cells; type: cell-based; conditions: 100 nM, 3 to 5 days during terminal differentiation
Experimental: (§1) The effect of the Clk1 inhibitor DC677 or DC761 on 3T3-L1 cells was examined. 3T3-L1 cells were incubated with 50 nM TG003 (an inhibitor of Clk1), 100 nM DC677, or 100 nM DC761 for 3 to 5 days. Adipocytes were used as a control. UCP1 expression was determined (results are shown in FIG. 1A and FIG. 2A; RQ is reference quotient). Oil Red O (obtained from Sigma-Aldrich, St. Louis, Mo.) was used to stain triglycerides and lipids, and the levels of Oil Red O were determined by measuring absorbance at 520 nm (results are shown in FIG. 1C and FIG. 2C). MitoTracker™ Green (Thermo Fischer Scientific, Waltham, Mass.) was used to stain mitochondria, and levels were determined by measuring absorbance at 495 nm (results are shown in FIG. 1D and FIG. 2D).

PGC1α = PGC1α expression in 3T3-L1 cells; type: cell-based; conditions: 100 nM, 3 to 5 days during terminal differentiation, vs adipocyte control
3T3-L1 cells [2] = assay: Differentiation of 3T3-L1 cells into beige cells; type: cell-based; conditions: for differentiation of 3T3-L1 cells into beige cells: 100 nM, 3 to 5 days
Experimental: as §1

3T3-L1 cells [3] = assay: MitoTracker Green staining of mitochondria in 3T3-L1 cells; type: cell-based; conditions: dose of 100 nM
Experimental: as §1
The effect of the Clk1 inhibitor DC677 on 3T3-L1 cells was examined with fluorescence microscopy. 3T3-L1 cells were cultured in a 12-well plate and differentiated by […] (MDI). The cells were then incubated with insulin, TG003, or DC677. On day 8, the cells were stained with MitoTracker™ Green (Thermo Fischer Scientific, Waltham, Mass.). In FIG. 3, the cell treatment is as follows: (1) insulin as a control; (2) 50 nm TG003 added on day 2; (3) 50 nm TG003 added on day 4; (4) 100 nm DC677 added on day 2; (5) 100 nm DC677 added on day 4; and (6) 100 nm DC677 added on day 6.

UCP1 = UCP1 expression in 3T3-L1 cells; type: cell-based; conditions: 100 nM, 3 to 5 days during terminal differentiation, vs adipocyte control
Experimental: as §1

Clk1 = conditions: stated as 'may be about'; no test described; cited from earlier work

O=C1Nc2ccc(Br)cc2/C1=C\c1nc2ccccc2c(=O)n1Cc1ccccc1 [DC677, 3-benzyl-2-[(5-bromo-2-oxo-1,2-dihydro-3H-indol-3-ylidene)methyl]-4(3H)-quinazolinone]
lipid storage and lipid droplet size (3T3-L1 cells [1]): stored fewer lipids in smaller lipid droplets
PGC1α expression (PGC1α): increased
performance compared with TG003 (3T3-L1 cells [2]; 100 nM DC677 vs 50 nM TG003): performs equally well to TG003
differentiation of 3T3-L1 cells into beige cells (3T3-L1 cells [2]): can differentiate into “beige” cells
mitochondrial biogenesis, effectiveness compared to TG003 at 50 nM (3T3-L1 cells [3]): highly effective
UCP1 expression (UCP1): increased

CC(=O)Nc1cccc(N2C(=O)c3cccc4cc([N+](=O)[O-])cc(c34)C2=O)c1 [DC761, N-[3-(5-nitro-1,3-dioxo-1H-benzo[de]isoquinolin-2(3H)-yl)phenyl]acetamide]
lipid storage and lipid droplet size (3T3-L1 cells [1]): stored fewer lipids in smaller lipid droplets
PGC1α expression (PGC1α): increased
differentiation of 3T3-L1 cells into beige cells (3T3-L1 cells [2]): can differentiate into “beige” cells
UCP1 expression (UCP1): increased
